Results from publication PMC7053488 (Cell, 2019).

Tests used:
[1] = target: T1, rat P2X7 receptor (rP2X7) (Rattus norvegicus, UniProt Q64663); test: SPA competition with 3H-GDP; format: binding
T1 sequence (Q64663 1-595): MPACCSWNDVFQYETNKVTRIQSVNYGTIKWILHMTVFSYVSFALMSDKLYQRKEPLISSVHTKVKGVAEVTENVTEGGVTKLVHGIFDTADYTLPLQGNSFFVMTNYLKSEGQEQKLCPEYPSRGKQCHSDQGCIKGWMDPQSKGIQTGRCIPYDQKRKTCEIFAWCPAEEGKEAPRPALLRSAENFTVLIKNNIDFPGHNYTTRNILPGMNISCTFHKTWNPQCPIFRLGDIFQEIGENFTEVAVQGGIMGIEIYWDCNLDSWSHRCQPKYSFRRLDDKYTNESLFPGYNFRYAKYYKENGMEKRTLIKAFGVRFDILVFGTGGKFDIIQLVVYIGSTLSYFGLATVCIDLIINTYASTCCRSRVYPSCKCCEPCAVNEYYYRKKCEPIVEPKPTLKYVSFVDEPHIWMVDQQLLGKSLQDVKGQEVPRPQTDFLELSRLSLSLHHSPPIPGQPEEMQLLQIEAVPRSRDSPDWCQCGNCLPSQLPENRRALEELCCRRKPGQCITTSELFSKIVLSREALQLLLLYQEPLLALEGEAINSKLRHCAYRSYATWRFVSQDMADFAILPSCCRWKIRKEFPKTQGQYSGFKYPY

[2] = target: T1, rat P2X7 receptor (rP2X7); test: cryo-EM structure; format: binding
[3] = target: T1, rat P2X7 receptor (rP2X7); test: cryo-EM structure; format: cell-based
[4] = target: rat P2X7 receptor, rP2X7-ΔBallast (Rattus norvegicus, UniProt Q64663)

Row | SMILES | Ki [1] [µM] | also measured
1 | Nc1nc2c(ncn2[C@@H]2O[C@H](COP(=O)(O)OP(=O)(O)OP(O)(O)=S)[C@@H](O)[C@H]2O)c(=O)[nH]1 [GTP-γ-S] | 0.1 ± 0.01 | –
2 | Nc1nc2c(ncn2[C@@H]2O[C@H](COP(=O)(O)OP(=O)(O)OP(=O)(O)O)[C@@H](O)[C@H]2O)c(=O)[nH]1 [GTP] | 0.15 ± 0.015 | –
3 | Nc1ccn([C@@H]2O[C@H](COP(=O)(O)OP(=O)(O)OP(=O)(O)O)[C@@H](O)[C@H]2O)c(=O)n1 [CTP] | 130 ± 3 | –
4 | O=c1ccn([C@@H]2O[C@H](COP(=O)(O)OP(=O)(O)OP(=O)(O)O)[C@@H](O)[C@H]2O)c(=O)[nH]1 [UTP] | 60 ± 10 | –
5 | Nc1nc2c(ncn2[C@@H]2O[C@H](COP(=O)(O)OP(=O)(O)O)[C@@H](O)[C@H]2O)c(=O)[nH]1 [GDP] | – | Kd [2]: 0.04 ± 0.01 µM
6 | Nc1ncnc2c1ncn2[C@@H]1O[C@H](COP(=O)(O)OP(=O)(O)OP(=O)(O)O)[C@@H](O)[C@H]1O [ATP] | – | EC50 [3]: 42 ± 3 µM; EC50 [4]: 52 ± 11 µM
